According to ChEMBL document CHEMBL5465560, “Selectivity Literature for EUbOPEN Chemogenomic Library” (2024):

Experiments:
[1] = biological target: Insulin receptor (Homo sapiens, UniProt P06213); assay: Selectivity interaction (KinomeScan (DiscoverX)) EUB0000092b INSR; details: at 10 µM
[2] = biological target: Tyrosine-protein kinase JAK2 (Homo sapiens, UniProt O60674); assay: Selectivity interaction (Upstate Kinase Profiler service (Millipore)) EUB0000056c JAK2; details: at 1 µM
[3] = biological target: Protein-tyrosine kinase 6 (Homo sapiens, UniProt Q13882); assay: Selectivity interaction (Upstate Kinase Profiler service (Millipore)) EUB0000056c PTK6; details: at 1 µM
[4] = biological target: T1, Protein kinase C iota type (Homo sapiens) (UniProt P41743); assay: Selectivity interaction (KinomeScan (DiscoverX)) EUB0000655a PRKCI; details: at 10 µM
T1 sequence (whole entry): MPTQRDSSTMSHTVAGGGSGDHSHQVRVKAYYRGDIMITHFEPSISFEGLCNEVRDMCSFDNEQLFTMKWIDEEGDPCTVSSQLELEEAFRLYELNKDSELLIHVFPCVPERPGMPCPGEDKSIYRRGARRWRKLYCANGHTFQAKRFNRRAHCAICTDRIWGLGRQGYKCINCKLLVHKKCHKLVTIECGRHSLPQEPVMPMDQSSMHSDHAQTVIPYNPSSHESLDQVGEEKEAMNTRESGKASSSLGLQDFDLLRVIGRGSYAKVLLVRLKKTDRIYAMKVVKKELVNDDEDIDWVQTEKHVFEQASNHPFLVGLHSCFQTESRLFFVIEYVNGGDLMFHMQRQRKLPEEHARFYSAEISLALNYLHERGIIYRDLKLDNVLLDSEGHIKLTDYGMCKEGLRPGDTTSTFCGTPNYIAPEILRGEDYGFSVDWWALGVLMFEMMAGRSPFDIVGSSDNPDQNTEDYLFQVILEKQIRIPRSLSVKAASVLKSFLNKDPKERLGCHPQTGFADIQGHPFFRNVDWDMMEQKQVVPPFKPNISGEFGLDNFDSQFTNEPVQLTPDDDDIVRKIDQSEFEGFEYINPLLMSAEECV

[5] = test system: Receptor-type tyrosine-protein kinase FLT3 (Homo sapiens), P36888 [UNDEFINED MUTATION]; assay: Selectivity interaction (KinomeScan (DiscoverX)) EUB0001079a FLT3; details: at 1 µM
[6] = biological target: T2, Serine/threonine-protein kinase tousled-like 1 (Homo sapiens) (UniProt Q9UKI8); assay: Selectivity interaction (Kinase panel (KiNativ target engagement assay in Jurkat cells)) EUB0001635a TLK1; format: cell-based; details: at 1 µM
T2 sequence (whole entry): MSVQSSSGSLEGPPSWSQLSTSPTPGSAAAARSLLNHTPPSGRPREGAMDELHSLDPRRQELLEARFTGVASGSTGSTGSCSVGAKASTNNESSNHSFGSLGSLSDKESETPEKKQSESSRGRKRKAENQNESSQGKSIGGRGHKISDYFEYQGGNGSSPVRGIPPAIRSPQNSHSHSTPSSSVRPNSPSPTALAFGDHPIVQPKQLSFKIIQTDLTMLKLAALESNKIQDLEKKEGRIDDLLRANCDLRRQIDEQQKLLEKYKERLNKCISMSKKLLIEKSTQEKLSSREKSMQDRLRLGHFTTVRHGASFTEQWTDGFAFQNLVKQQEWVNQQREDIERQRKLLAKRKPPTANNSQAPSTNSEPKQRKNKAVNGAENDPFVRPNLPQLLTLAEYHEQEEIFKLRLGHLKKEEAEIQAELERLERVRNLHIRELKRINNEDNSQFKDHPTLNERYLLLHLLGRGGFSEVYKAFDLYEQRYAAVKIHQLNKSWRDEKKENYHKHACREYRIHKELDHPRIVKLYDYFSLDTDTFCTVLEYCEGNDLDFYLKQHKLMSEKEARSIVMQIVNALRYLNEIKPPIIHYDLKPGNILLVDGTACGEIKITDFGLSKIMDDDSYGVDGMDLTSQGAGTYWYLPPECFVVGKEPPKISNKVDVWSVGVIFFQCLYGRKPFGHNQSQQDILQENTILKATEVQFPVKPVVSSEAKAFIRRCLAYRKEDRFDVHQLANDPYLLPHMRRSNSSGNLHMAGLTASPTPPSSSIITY

[7] = biological target: T3, MAP kinase-activated protein kinase 5 (Homo sapiens) (UniProt Q8IW41); assay: Selectivity interaction (KinaseProfiler screening (Millipore)) EUB0000601a MAPKAPK5; details: at 3 µM
T3 sequence (whole entry): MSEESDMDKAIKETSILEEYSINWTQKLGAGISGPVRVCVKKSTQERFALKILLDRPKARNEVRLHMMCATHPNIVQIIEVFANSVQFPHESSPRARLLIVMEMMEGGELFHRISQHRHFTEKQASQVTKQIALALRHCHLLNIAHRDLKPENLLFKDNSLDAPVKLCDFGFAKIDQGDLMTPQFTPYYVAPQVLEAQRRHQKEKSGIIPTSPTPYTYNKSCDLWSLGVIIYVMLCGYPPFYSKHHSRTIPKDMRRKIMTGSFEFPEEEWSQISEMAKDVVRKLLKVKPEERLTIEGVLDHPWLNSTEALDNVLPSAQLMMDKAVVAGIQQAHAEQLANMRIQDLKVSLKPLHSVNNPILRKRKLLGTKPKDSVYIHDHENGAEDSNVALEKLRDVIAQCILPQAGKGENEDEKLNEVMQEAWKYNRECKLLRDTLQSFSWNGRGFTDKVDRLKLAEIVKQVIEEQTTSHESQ

[8] = biological target: Cyclin-dependent kinase-like 1 (Homo sapiens) (UniProt Q00532); assay: Selectivity interaction (KinomeScan (DiscoverX)) EUB0000618a CDKL1; details: at 10 µM
[9] = biological target: Calcium/calmodulin-dependent protein kinase type 1D (Homo sapiens) (UniProt Q8IU85); assay: Selectivity interaction (KinomeScan (DiscoverX)) EUB0000618a CAMK1D; details: at 10 µM
[10] = biological target: T4, STE20-related kinase adapter protein alpha (Homo sapiens) (UniProt Q7RTN6); assay: Selectivity interaction (ActivX KiNativ screen (ex vivo kinase selectivity in human PBMCs)) EUB0001619a STRADA; format: cell-based; details: PBMC, at 1 µM
T4 sequence (whole entry): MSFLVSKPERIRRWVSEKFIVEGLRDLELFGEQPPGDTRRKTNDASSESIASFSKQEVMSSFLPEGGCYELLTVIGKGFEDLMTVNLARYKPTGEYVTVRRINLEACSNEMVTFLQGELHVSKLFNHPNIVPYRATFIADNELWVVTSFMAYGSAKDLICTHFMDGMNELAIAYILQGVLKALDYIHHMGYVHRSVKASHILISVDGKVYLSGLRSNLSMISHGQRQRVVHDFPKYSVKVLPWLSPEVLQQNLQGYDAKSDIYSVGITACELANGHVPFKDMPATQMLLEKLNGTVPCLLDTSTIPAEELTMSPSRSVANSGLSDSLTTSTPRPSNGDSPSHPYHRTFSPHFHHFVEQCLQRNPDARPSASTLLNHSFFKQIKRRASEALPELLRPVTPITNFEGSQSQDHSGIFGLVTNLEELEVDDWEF

Chain of Protein-tyrosine kinase 6 (Q13882 whole entry, looked up): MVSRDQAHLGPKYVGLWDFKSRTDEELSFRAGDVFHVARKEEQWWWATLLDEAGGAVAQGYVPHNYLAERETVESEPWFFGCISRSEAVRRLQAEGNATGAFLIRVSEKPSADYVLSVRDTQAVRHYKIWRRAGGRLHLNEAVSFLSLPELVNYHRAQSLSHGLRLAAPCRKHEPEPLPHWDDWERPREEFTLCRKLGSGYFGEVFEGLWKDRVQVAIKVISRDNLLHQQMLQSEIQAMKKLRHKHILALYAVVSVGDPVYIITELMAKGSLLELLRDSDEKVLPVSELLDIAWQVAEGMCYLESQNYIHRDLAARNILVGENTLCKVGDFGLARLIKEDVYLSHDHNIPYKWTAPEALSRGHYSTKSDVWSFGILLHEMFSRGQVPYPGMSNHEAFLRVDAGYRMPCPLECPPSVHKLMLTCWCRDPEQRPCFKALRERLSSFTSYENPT
Chain of Tyrosine-protein kinase JAK2 (O60674 whole entry): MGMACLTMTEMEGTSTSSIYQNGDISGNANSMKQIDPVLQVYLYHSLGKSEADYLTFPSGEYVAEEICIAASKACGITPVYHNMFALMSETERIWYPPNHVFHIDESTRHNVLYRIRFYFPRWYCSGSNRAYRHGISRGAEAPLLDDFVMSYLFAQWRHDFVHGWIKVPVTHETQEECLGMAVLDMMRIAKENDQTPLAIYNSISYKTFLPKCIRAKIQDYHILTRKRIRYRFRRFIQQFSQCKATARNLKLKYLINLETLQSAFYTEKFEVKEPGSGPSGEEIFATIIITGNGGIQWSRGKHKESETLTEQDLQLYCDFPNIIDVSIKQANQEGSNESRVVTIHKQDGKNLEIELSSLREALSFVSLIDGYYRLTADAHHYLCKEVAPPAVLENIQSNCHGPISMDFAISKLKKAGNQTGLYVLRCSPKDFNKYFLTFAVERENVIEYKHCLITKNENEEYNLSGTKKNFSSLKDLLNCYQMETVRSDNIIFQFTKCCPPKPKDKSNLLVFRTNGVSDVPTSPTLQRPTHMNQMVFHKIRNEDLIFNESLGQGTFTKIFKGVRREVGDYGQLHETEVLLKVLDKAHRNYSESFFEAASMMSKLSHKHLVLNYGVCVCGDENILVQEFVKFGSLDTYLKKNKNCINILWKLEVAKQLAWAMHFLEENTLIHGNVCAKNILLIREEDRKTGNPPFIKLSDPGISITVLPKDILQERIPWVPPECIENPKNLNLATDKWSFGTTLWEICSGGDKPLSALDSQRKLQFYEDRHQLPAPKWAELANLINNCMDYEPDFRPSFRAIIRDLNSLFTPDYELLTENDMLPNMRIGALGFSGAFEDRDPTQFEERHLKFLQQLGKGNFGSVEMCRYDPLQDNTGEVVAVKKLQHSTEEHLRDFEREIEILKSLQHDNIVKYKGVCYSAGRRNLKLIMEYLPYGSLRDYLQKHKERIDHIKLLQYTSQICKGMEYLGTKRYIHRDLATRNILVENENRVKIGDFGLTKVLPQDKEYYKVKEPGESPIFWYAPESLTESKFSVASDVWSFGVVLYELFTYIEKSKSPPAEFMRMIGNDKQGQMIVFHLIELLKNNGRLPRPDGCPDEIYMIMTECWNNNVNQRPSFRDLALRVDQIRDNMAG
Chain of Receptor-type tyrosine-protein kinase FLT3 (Homo sapiens), P36888 [UNDEFINED MUTATION] (P36888 whole entry, looked up, change not shown): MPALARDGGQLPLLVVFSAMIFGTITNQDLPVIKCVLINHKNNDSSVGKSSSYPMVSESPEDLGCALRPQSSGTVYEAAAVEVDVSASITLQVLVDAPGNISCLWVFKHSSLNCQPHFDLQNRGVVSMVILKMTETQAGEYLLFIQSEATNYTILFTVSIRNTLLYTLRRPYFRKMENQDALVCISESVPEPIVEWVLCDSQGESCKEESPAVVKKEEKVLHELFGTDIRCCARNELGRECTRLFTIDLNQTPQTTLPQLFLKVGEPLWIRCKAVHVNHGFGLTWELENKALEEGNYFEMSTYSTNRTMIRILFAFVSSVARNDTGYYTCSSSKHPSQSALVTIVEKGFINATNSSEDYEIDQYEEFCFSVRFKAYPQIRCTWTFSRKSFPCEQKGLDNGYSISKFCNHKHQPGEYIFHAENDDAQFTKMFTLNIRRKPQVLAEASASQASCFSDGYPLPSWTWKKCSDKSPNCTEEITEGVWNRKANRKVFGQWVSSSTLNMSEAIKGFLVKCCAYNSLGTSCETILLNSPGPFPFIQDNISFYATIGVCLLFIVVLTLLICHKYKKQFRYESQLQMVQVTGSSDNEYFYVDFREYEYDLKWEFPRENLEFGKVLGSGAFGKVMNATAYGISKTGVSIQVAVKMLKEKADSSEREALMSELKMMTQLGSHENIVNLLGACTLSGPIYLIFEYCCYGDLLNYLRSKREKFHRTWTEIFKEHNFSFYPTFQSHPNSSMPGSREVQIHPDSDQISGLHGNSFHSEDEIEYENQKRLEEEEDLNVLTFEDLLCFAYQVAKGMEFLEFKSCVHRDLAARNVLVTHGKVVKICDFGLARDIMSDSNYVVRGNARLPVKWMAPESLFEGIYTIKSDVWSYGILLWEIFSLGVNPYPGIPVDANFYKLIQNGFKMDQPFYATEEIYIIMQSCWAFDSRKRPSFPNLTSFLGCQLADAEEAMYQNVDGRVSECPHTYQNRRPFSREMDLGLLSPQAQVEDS
Chain of Insulin receptor (P06213 28-758 limits assumed): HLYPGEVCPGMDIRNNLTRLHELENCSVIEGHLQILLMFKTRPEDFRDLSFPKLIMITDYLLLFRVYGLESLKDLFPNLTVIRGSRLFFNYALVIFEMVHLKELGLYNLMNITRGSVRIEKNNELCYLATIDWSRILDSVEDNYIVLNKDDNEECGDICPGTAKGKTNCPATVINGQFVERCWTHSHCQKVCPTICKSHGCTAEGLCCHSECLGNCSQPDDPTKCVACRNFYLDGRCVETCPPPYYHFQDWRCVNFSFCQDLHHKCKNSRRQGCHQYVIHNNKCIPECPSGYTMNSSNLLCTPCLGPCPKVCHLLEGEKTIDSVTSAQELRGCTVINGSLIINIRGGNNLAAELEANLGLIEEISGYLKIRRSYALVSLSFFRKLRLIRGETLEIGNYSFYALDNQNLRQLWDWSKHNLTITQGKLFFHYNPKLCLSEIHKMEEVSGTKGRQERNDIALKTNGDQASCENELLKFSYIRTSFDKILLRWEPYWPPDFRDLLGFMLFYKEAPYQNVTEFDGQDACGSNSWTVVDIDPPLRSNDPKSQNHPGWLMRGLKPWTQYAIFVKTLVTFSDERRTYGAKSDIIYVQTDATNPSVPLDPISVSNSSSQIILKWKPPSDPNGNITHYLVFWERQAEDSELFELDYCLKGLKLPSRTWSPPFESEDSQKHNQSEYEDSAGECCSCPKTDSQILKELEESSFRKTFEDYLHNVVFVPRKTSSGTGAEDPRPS
Chain of Insulin receptor (P06213 763-1382 limits assumed): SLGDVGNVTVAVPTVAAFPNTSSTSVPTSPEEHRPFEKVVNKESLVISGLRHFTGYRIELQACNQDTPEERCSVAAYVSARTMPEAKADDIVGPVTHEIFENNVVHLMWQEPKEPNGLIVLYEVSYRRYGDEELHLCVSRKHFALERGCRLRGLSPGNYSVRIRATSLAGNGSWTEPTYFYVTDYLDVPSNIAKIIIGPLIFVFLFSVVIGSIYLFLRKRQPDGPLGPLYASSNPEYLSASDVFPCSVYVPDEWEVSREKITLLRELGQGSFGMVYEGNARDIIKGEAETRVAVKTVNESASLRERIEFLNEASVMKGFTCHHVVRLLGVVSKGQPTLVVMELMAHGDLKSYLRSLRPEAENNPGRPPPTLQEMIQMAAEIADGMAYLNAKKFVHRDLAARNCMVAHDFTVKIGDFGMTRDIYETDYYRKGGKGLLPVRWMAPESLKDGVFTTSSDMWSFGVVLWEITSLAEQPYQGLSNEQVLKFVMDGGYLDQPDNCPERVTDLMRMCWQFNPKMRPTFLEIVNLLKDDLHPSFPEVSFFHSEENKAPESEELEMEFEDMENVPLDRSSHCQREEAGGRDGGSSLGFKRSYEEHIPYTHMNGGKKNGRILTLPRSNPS
Chain of Cyclin-dependent kinase-like 1 (Homo sapiens) (Q00532 whole entry): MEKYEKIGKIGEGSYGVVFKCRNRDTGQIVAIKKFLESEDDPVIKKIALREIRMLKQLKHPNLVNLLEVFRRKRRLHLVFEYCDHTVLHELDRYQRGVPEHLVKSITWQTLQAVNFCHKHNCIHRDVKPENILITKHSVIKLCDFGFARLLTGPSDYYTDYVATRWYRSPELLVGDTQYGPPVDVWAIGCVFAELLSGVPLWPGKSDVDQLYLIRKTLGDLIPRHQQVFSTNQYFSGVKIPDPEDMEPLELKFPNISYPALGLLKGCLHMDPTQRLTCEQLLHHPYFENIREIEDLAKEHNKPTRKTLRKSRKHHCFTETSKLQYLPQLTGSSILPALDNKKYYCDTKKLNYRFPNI
Chain of Calcium/calmodulin-dependent protein kinase type 1D (Homo sapiens) (Q8IU85 whole entry, looked up): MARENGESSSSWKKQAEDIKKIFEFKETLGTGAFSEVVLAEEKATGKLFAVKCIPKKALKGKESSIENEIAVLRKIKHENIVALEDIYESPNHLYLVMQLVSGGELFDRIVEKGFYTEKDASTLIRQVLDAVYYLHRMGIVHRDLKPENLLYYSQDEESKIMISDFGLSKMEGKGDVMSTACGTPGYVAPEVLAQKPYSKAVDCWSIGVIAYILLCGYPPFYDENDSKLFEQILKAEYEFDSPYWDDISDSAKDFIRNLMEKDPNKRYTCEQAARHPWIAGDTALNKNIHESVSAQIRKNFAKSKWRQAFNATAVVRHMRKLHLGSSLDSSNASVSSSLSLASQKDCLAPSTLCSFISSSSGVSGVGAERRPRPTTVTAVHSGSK

Compound: CCC(=O)N1CCN(c2ccc(-n3c(=O)ccc4cnc5ccc(-c6cnc7ccccc7c6)cc5c43)cc2C(F)(F)F)CC1
- % of control [1]: 7.6%

Compound: Cc1ccc(-c2ccc3c(ccc4sc5c(c43)NC[C@@H](C)NC5=O)n2)cn1
- % of inhibition [2]: 14%
- % of inhibition [3]: 0%

Compound: CN(C)CCOc1ccc(-c2nc(-c3ccncc3)c(-c3ccc4c(c3)CC/C4=N\O)[nH]2)cc1
- % of control [4]: 80%

Compound: Nc1cnc(N2CCc3cc(S(=O)(=O)Nc4c(F)cc(Cl)cc4F)cc(N4CCCC4=O)c32)nc1 [TP-020n]
- % of control [5]: 96%

Compound: C=CC(=O)Nc1ccc(C(=O)Nc2[nH]nc3c2CN(C(=O)N[C@H](CN(C)C)c2ccccc2)C3(C)C)cc1
- % of engagement ([6]; Selectivity number of off-targets 0.0, Selectivity number of targets 233.0, Source Knowledge https://www.sciencedirect.com/science/article/pii/S2451945619300674?via%3Dihub): 12.6%
- % of engagement [6]: 13.2%

Compound: CCc1cc(Nc2nccc(-c3c(-c4ccc(OC)c(C(=O)Nc5c(F)cccc5F)c4)nc4ccccn34)n2)c(OC)cc1N1CCC(N2CCN(S(C)(=O)=O)CC2)CC1
- % of inhibition [7]: 35%

Compound: O[C@H]1CC[C@H](Nc2ncc3nc(Nc4c(F)cc(F)cc4F)n([C@H]4CCOC4)c3n2)CC1
- % of control [8]: 95%
- % of control [9]: 93%

Compound: N#Cc1cccc(-c2c[nH]c3ncnc(N4CCOCC4)c23)c1
- % of inhibition [10]: 1%
